Reference: patent US20200024278A1, “COMPOSITION COMPRISING ANTIBIOTIC COMPOUND AND AN HETEROCYCLIC COMPOUND AND THEIR USE IN PREVENTING OR TREATING BACTERIAL INFECTIONS” (MUTABILIS, priority 2016, published 2020)
Read-outs that look alike come from different tables or passages of the source.

Columns and labels:
Assay in all cases: MIC, broth microdilution (CLSI), substance alone or ATB combined with compound at 4 or 8 μg/mL
PAE UFR48 = assay type: cell-based, P. aeruginosa; conditions: PAE UFR48; for MIC: Pseudomonas aeruginosa
Method in brief: (§1)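 CLSI M7-A7 broth microdilution. ca-MHB, 5·10^5 CFU/mL log-phase cells, 16-20 h, 35° C, ambient air. Fosfomycin wells + 25 μg/ml glucose-6-phosphate. Visual MIC read.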

PAE 105250 = assay type: cell-based, P. aeruginosa; conditions: PAE 105250
Method in brief: as §1

SPN 49619 = assay type: cell-based, S. pneumoniae; conditions: SPN 49619
Method in brief: as §1

ECO 190317 = assay type: cell-based, E. coli; conditions: ECO 190317
Method in brief: as §1

ECO UFR39 = assay type: cell-based, E. coli; conditions: ECO UFR39
Method in brief: as §1

ECL P99 = assay type: cell-based, E. cloacae; conditions: ECL P99
Method in brief: as §1

[1] = Escherichia coli, antibiotic alone, read-out: MIC ATB alone

NCC[C@H](O)C(=O)N[C@@H]1C[C@H](N)[C@@H](O[C@H]2O[C@H](CN)[C@@H](O)[C@H](O)[C@H]2O)[C@H](O)[C@H]1O[C@H]1O[C@H](CO)[C@@H](O)[C@H](N)[C@H]1O [AN, Amikacin, reference compound]
MIC ATB combined with Example 12 @8 μg/ml (PAE UFR48; with Example 12 at 8 μg/ml): 32 µg/mL
MIC ATB combined with Example 13 @8 μg/ml (PAE UFR48; with Example 13 at 8 μg/ml): 32 µg/mL
MIC ATB combined with Example 14 @8 μg/ml (PAE UFR48; with Example 14 at 8 μg/ml): 32 µg/mL
MIC ATB combined with Example 15 @4 μgml (PAE UFR48; with Example 15 at 4 μg/ml): >32 µg/mL
MIC ATB combined with Example 16 @4 μg/ml (PAE UFR48; with Example 16 at 4 μg/ml): 32 µg/mL
MIC (PAE UFR48; antibiotic alone, read-out: MIC ATB alone): 32 µg/mL
MIC (PAE UFR48; substance alone, read-out: MIC): 32 µg/mL
MIC ATB combined with Example 1 @8 μg/ml (PAE 105250; with Example 1 @8 μg/ml): <0.031 µg/mL
MIC ATB combined with Example 1 @8 μg/ml (PAE 105250; with Example 1 at 8 μg/ml): <0.031 µg/mL
MIC ATB combined with Example 7 @8 μgml (PAE 105250; with Example 7 at 8 μg/ml): 2 µg/mL
MIC ATB combined with Example 9 @4 μg/ml (PAE 105250; with Example 9 @4 μg/ml): 2 µg/mL
MIC ATB combined with Example 9 @4 μg/ml (PAE 105250; with Example 9 at 4 μg/ml): 2 µg/mL
MIC ATB combined with Example 11 @8 μg/ml (PAE 105250; with Example 11 at 8 μg/ml): 2 µg/mL
MIC ATB combined with Example 12 @8 μg/ml (PAE 105250; with Example 12 at 8 μg/ml): 2 µg/mL
MIC ATB combined with Example 13 @8 μg/ml (PAE 105250; with Example 13 at 8 μg/ml): 2 µg/mL
MIC ATB combined with Example 14 @8 μg/ml (PAE 105250; with Example 14 at 8 μg/ml): 1 µg/mL
MIC ATB combined with Example 15 @4 μgml (PAE 105250; with Example 15 at 4 μg/ml): 2 µg/mL
MIC ATB combined with Example 16 @4 μg/ml (PAE 105250; with Example 16 at 4 μg/ml): 1 µg/mL
MIC (PAE 105250; Pseudomonas aeruginosa, antibiotic alone, read-out: MIC ATB alone): 2 µg/mL
MIC ATB combined with Example 1 @8 μg/ml (SPN 49619; with Example 1 @8 μg/ml): 32 µg/mL
MIC ATB combined with Example 1 @8 μg/ml (SPN 49619; with Example 1 at 8 μg/ml): 32 µg/mL
MIC ATB combined with Example 7 @8 μgml (SPN 49619; with Example 7 at 8 μg/ml): >32 µg/mL
MIC ATB combined with Example 9 @4 μg/ml (SPN 49619; with Example 9 @4 μg/ml): <0.031 µg/mL
MIC ATB combined with Example 9 @4 μg/ml (SPN 49619; with Example 9 at 4 μg/ml): <0.031 µg/mL
MIC ATB combined with Example 11 @8 μg/ml (SPN 49619; with Example 11 at 8 μg/ml): 32 µg/mL
MIC ATB combined with Example 12 @8 μg/ml (SPN 49619; with Example 12 at 8 μg/ml): 4 µg/mL
MIC ATB combined with Example 13 @8 μg/ml (SPN 49619; with Example 13 at 8 μg/ml): >32 µg/mL
MIC ATB combined with Example 14 @8 μg/ml (SPN 49619; with Example 14 at 8 μg/ml): 4 µg/mL
MIC ATB combined with Example 15 @4 μgml (SPN 49619; with Example 15 at 4 μg/ml): 32 µg/mL
MIC ATB combined with Example 16 @4 μg/ml (SPN 49619; with Example 16 at 4 μg/ml): 16 µg/mL
MIC (SPN 49619; Streptococcus pneumoniae, antibiotic alone, read-out: MIC ATB alone): 32 µg/mL
MIC ATB combined with Example 1 @8 μg/ml (ECO 190317; with Example 1 @8 μg/ml): <0.031 µg/mL
MIC ATB combined with Example 1 @8 μg/ml (ECO 190317; with Example 1 at 8 μg/ml): <0.031 µg/mL
MIC ATB combined with Example 7 @8 μgml (ECO 190317; with Example 7 at 8 μg/ml): <0.031 µg/mL
MIC ATB combined with Example 9 @4 μg/ml (ECO 190317; with Example 9 @4 μg/ml): <0.031 µg/mL
MIC ATB combined with Example 9 @4 μg/ml (ECO 190317; with Example 9 at 4 μg/ml): <0.031 µg/mL
MIC ATB combined with Example 11 @8 μg/ml (ECO 190317; with Example 11 at 8 μg/ml): <0.031 µg/mL
MIC ATB combined with Example 12 @8 μg/ml (ECO 190317; with Example 12 at 8 μg/ml): <0.031 µg/mL
MIC ATB combined with Example 13 @8 μg/ml (ECO 190317; with Example 13 at 8 μg/ml): <0.031 µg/mL
MIC ATB combined with Example 14 @8 μg/ml (ECO 190317; with Example 14 at 8 μg/ml): <0.031 µg/mL
MIC ATB combined with Example 15 @4 μgml (ECO 190317; with Example 15 at 4 μg/ml): <0.031 µg/mL
MIC ATB combined with Example 16 @4 μg/ml (ECO 190317; with Example 16 at 4 μg/ml): <0.031 µg/mL
MIC (ECO 190317; [1]): 8 µg/mL
MIC ATB combined with Example 1 @8 μg/ml (ECO UFR39; with Example 1 @8 μg/ml): <=0.031 μg/mL
MIC ATB combined with Example 1 @8 μg/ml (ECO UFR39; with Example 1 at 8 μg/ml): <=0.031 μg/mL
MIC ATB combined with Example 7 @8 μgml (ECO UFR39; with Example 7 at 8 μg/ml): <0.031 µg/mL
MIC ATB combined with Example 9 @4 μg/ml (ECO UFR39; with Example 9 @4 μg/ml): <0.031 µg/mL
MIC ATB combined with Example 9 @4 μg/ml (ECO UFR39; with Example 9 at 4 μg/ml): <0.031 µg/mL
MIC ATB combined with Example 11 @8 μg/ml (ECO UFR39; with Example 11 at 8 μg/ml): <0.031 µg/mL
MIC ATB combined with Example 12 @8 μg/ml (ECO UFR39; with Example 12 at 8 μg/ml): <0.031 µg/mL
MIC ATB combined with Example 13 @8 μg/ml (ECO UFR39; with Example 13 at 8 μg/ml): 0.063 µg/mL
MIC ATB combined with Example 14 @8 μg/ml (ECO UFR39; with Example 14 at 8 μg/ml): <0.031 µg/mL
MIC ATB combined with Example 15 @4 μgml (ECO UFR39; with Example 15 at 4 μg/ml): <0.031 µg/mL
MIC ATB combined with Example 16 @4 μg/ml (ECO UFR39; with Example 16 at 4 μg/ml): <0.031 µg/mL
MIC (ECO UFR39; [1]): > 32 µg/mL
MIC ATB combined with Example 1 @8 μg/ml (ECL P99; with Example 1 @8 μg/ml): <0.031 µg/mL
MIC ATB combined with Example 1 @8 μg/ml (ECL P99; with Example 1 at 8 μg/ml): <0.031 µg/mL
MIC ATB combined with Example 7 @8 μgml (ECL P99; with Example 7 at 8 μg/ml): 0.063 µg/mL
MIC ATB combined with Example 9 @4 μg/ml (ECL P99; with Example 9 @4 μg/ml): <0.031 µg/mL
MIC ATB combined with Example 9 @4 μg/ml (ECL P99; with Example 9 at 4 μg/ml): <0.031 µg/mL
MIC ATB combined with Example 11 @8 μg/ml (ECL P99; with Example 11 at 8 μg/ml): <0.031 µg/mL
MIC ATB combined with Example 12 @8 μg/ml (ECL P99; with Example 12 at 8 μg/ml): <0.031 µg/mL
MIC ATB combined with Example 13 @8 μg/ml (ECL P99; with Example 13 at 8 μg/ml): 0.125 µg/mL
MIC ATB combined with Example 14 @8 μg/ml (ECL P99; with Example 14 at 8 μg/ml): <0.031 µg/mL
MIC ATB combined with Example 15 @4 μgml (ECL P99; with Example 15 at 4 μg/ml): <=0.031 μg/mL
MIC ATB combined with Example 16 @4 μg/ml (ECL P99; with Example 16 at 4 μg/ml): <0.031 µg/mL
MIC (ECL P99; Enterobacter cloacae, antibiotic alone, read-out: MIC ATB alone): 0.063 µg/mL
